Reference: patent publication US10238756B2, “Lipid nanoparticles and uses thereof” (Tongli Biomedical Co., Ltd., priority 2015, dated 2019)

How the values were obtained:
[1] = Storage stability of ICG fluorescence in the dark at 4° C.; format: physicochemical; conditions: for % ICG fluorescence (8 months): stored in the dark at 4° C. for 8 months, % of initial fluorescence intensity, mean ± SD
Procedure: (§1) Fluorescence. Fluorescence measurements were performed on a Victor3 V 1420-040 Multilabel Plate Reader (Perkin-Elmer, Waltham, Mass.) with a tungsten-halogen continuous wave lamp (75 W, spectral range of 320-800 nm) and excitation (769±41 nm) and emission (832±37 nm) filters (Semrock, Rochester, N.Y.) using 100μL of sample in flat bottom, untreated 96-well plates (Grenier Bio-one, Monroe, N.C.).
(§2) Light Exposure and Storage Stability. […] For storage stability (FIG. 12), samples were placed in the dark at 4° C. for up to 313 days. […] The time-dependent decay of ICG fluorescence was analyzed on the basis of an exponential decay model with GraphPad Prism version 6.0 (GraphPad Software, San Diego, Calif.). The data were expressed as t½ (half-life) and k (rate constant).

[2] = Light exposure stability of ICG fluorescence; format: physicochemical
Procedure: as §1, §2

[3] = tested on: lymph nodes and vessels in mice; experiment: In vivo NIR lymphatic imaging in mice after subcutaneous foot injection; set-up: species or system mouse; conditions: for max NIRF intensity: mean ± SEM (N = 3-4)
Procedure: (§3) In Vivo NIR Lymphatic Imaging in Mice. Mice were kept under pathogen-free conditions, exposed to a 12 h light-dark cycle, and received food ad libitum prior to imaging. All procedures were approved by the University of Washington Institutional Animal Care and Use Committee. Mice were anesthetized with 1.5% isoflurane, shaved to remove fur, and placed in a supine position on a 37° C. heat pad underneath an IVIS Lumina II NIR CCD camera (Perkin Elmer, Waltham, Mass.). Precontrast images were taken to confirm the absence of autofluorescence. Forty microliters of ICG-LNPs or free ICG was injected subcutaneously into the top of both rear feet. Immediately following injections, both feet were placed under gentle even pressure. Images were acquired for up to 120 min prior to euthanasia by cervical dislocation under anesthesia, upon which the skin was surgically opened to perform lymph node imaging.

[4] = tested on: popliteal and sciatic lymph nodes; experiment: In vivo pharmacokinetics of fluorescence intensity in draining lymph nodes detected through skin; conditions: subcutaneous, mouse foot, N = 3
Procedure: as §3

half-life ([1]; buffer, stored in the dark at 4° C., exponential decay model, (95% CI)): 28.6 h
% ICG fluorescence (8 months) [1]: 0.3 +/− 0.2%
% ICG fluorescence (8 months) ([1]; listed as free ICG): 0.3±0.2%
k (rate constant) ([1]; stored in the dark at 4° C., exponential decay model): 0.582 day⁻¹
fluorescence intensity, % of the initial value ([2]; after 6 hours of light exposure, 2.0 μM ICG, overhead fluorescent light): 2.5±0.5%
half-life at 2 μM ([2]; aqueous solution (free ICG in solution), light exposure, exponential decay model): 2.16 ± 0.3 min
k ([2]; light exposure, exponential decay model): 19.2 ± 2.7 h⁻¹
AUC0-2 hr ([4]; fluorescence intensity in 1st draining lymph node (popliteal LN) through skin): 61.65 ± 34.83 a.u.*min
Intensitymax ([4]; popliteal LN through skin): 0.66 ± 0.42 a.u.
k ([4]; popliteal LN through skin): 0.19 ± 0.17 h⁻¹
SMILES: CC1(C)C(/C=C/C=C/C=C/C=C2\N(CCCCS(=O)(=O)O)c3ccc4ccccc4c3C2(C)C)=[N+](CCCCS(=O)(=O)[O-])c2ccc3ccccc3c21 [Free ICG, sodium 2-[7-[3,3-dimethyl-1-(4-sulfonatobutyl)benz[e]indolin-2-ylidene]hepta-1,3,5-trien-1-yl]-3,3-dimethyl-1-(4-sulfonatobutyl)benz]
No. of nodes detected ([3]; Axillary): 2
max NIRF intensity ([3]; Axillary LN): 0.8 ± 0.1 10^−5 a.u.
No. of nodes detected ([3]; Gastric): 1-2
max NIRF intensity ([3]; Gastric LN): 2.5 ± 1.3 10^−5 a.u.
No. of nodes detected ([3]; Medial iliac): 1-2
max NIRF intensity ([3]; Medial iliac LN): 4.1 ± 1.6 10^−5 a.u.
max NIRF intensity ([3]; Pop afferent vessel): 0.6 ± 0.2 10^−5 a.u.
max NIRF intensity ([3]; Pop efferent vessel): 0.6 ± 0.1 10^−5 a.u.
No. of nodes detected ([3]; Popliteal (Pop)): 1
max NIRF intensity ([3]; Popliteal (Pop) LN): 4.7 ± 2.2 10^−5 a.u.
No. of nodes detected ([3]; Sciatic): 0
max NIRF intensity ([3]; Sciatic LN): 0.6 ± 0.1 10^−5 a.u.
ICG intensity mean of the popliteal lymph node ([3]; image collected below the skin, six minutes, 0.5 nmol of ICG subcutaneously in foot): 37.0
